According to US20140271734A1, “BILE ACID RECYCLING INHIBITORS FOR TREATMENT OF BARRETT'S ESOPHAGUS AND GASTROESOPHAGEAL REFLUX DISEASE” (LUMENA PHARMACEUTICALS, INC., priority 2013, published 2014):

Legend:
[1] = system: serum total bile acid (SBA); conditions: previous experiments; cited from earlier work
[2] = system: 3-Hydroxy-3-Methylglutaryl Coenzyme A (HMG-CoA) Reductase; assay: HMG-CoA reductase activity in liver microsomes of treated dogs; type: in vivo, beagle dogs; conditions: 14 Days; for HMG-CoA Reductase: n=8
Description: Healthy female and male beagle dogs in the age range of 8 to 10 months were used. The animals were acclimated for at least four weeks before dose administration. […] Animals in the control group (group 1) were given the same number of empty capsules as the animals of group 5 to treat all dose groups the same.
(§1) At the end of the study, animals were anesthetized, their livers removed and flash frozen and stored at −80 C. Homogenates of three gram liver tissue samples were prepared in 25 ml homogenization buffer [0.1 M potassium phosphate buffer, pH 7.2, containing 0.1 M sucrose, 50 mM KCl, 50 mM NaF, 5 mM ethylene glycol-bis((3-aminoethyl ether)-N,N,N′,N′-tetraacetic acid (EGTA), 1 mM EDTA, 3 mM dithiothreitol (DTT), and 1 mM phenylmethylsulfonyl fluoride (PMSF)]. A microsomal fraction was prepared by centrifugation at 10,000×g for ten minutes. The supernatant was subjected to centrifugation at 105,000×g for two hours. The microsomal fraction was resuspended in a 0.1 M Na tetrapyrophosphate buffer (pH 10), with 50 mM NaF, and 1 mM EDTA, and subjected to centrifugation for one hour at 105,000×g. The microsomal fraction was resuspended in the homogenization buffer, and assayed for protein content by Coomassie Protein Plus Assay reagent.
Microsomes (200 μg) were preincubated for 15 minutes at 37° C. in a total volume of […] buffer containing 0.1 M potassium phosphate (pH 7.4), 10 mM imidazole, 5 mM DTT, 10 mM EDTA, 3 mM NADP, 12 mM glucose-6-phosphate and 1 unit glucose-6-phosphate dehydrogenase (catalog number G4134, Sigma, St. Louis). The HMG-CoA reductase assay was initiated by the addition of 9 nmoles (0.5 μCi) DL-[3^14C] HMG-CoA (final assay volume was […]. The mixture was incubated for 60 minutes at 37° C. after which the assay was stopped with 25 μl of 6 N HCl. [^3H]Mevalonic acid (0.1 μCi), used as an internal standard to correct for incomplete recovery, was added to the reaction mixture along with 3 mg of unlabeled mevalonic acid lactone. The mixture was then incubated for an additional 30 minutes at 37° C. The [^14C]mevalonate that was formed and converted into mevalonic acid lactone during both incubations was isolated by thin layer chromatography. Each lane was scraped into 3 ml of InstaGel XF (Packard, Meriden, Conn.) and read on a Beckman Scintillator Counter. Reagents unless noted otherwise were obtained from Sigma, St. Louis, Mo. Isotopes were obtained from NEN Life Science Products, Boston, Mass.

[3] = system: Cholesterol 7-α hydroxylase; assay: Cholesterol 7-α hydroxylase activity in liver microsomes of treated dogs; type: in vivo, beagle dogs; conditions: 14 Days; for Cholesterol 7a-hydroxylase: n=8
Description: Healthy female and male beagle dogs in the age range of 8 to 10 months were used. The animals were acclimated for at least four weeks before dose administration. Four female and four male dogs per dose group (groups 2-5) were given single daily doses of LUM001 at 1, 4, 12 and 30 mg free form/kg for 13 days. Animals in the control group (group 1) were given the same number of empty capsules as the animals of group 5 to treat all dose groups the same.
as §1
Liver microsomes (1 mg) or 7-α-hydroxycholesterol standard solutions were preincubated for five minutes at 37° C. in a rocking water bath with 500 μl 5× buffer, 1.7 ml water, and 50 μl 0.1% (w/v) cholesterol as substrate in excess. The 5× buffer consists of 0.42 M Na2HPO4, 0.25 mM NaF, 0.08 M KH2PO4, 5 mM EDTA and 10 mM DTT. The reaction tubes were incubated at 37° C. in a rocking water bath throughout the remainder of the assay protocol, with cessation of rocking only for the period of time needed to add solutions. After the preincubation period, 250 μl of 10 mM NADPH was added and incubated for 5 minutes to allow enzymatic conversion of the cholesterol substrate to 7-α-hydroxycholesterol by endogenous 7-α-hydroxylase. The reaction was stopped by addition of 75 μl of 20% sodium cholate.
After four minutes, 25 μl of 100 μM 20-α-hydroxycholesterol was added to each tube as an internal recovery standard. The tubes were allowed to rock briefly in the water bath to mix, then 40 μl of 25 U/ml cholesterol oxidase was added and the tubes were incubated for ten minutes to convert 7-α-hydroxycholesterol and 20-α-hydroxycholesterol to their ketone forms, 7-α-hydroxycholesten-3-one and 20-α-hydroxycholesten-3-one. After the enzymatic reactions were completed, the ketone products were isolated by four sequential extractions in 20, 10, 10 and 10 ml petroleum ether, respectively. The collected volumes were evaporated to dryness under a flow of nitrogen gas between each extraction step using a heat block set at 50° C. The final dried samples were resuspended in 125 μl mobile phase solution consisting of 70:30 acetonitrile/methanol for analysis by reversed phase HPLC. Chromatography was performed on a 4.6×250 mm Beckman Ultrosphere ODS reverse phase column in mobile phase solution. The analyte, 7-α-hydroxy-4-cholesten-3-one, is quantified by absorption at 254 nm using the internal standard 20-α-hydroxy-4-cholesten-3-one to control for extraction efficiency.

[4] = system: Alanine Aminotransferase (ALAT); assay: Plasma alanine aminotransferase in ZDF rats, week 3; type: in vivo; conditions: twice daily oral gavage
[5] = system: Alkaline Phosphatase (ALP); conditions: twice daily oral gavage; Week 3
Description: This study was conducted to determine the effects of two non-absorbed ASBTi compounds in the ZDF rat model after 3 weeks of treatment.
Animals were acclimatized for 5-7 days after arrival. […] The 2nd set of study was initiated after completion of the 1st. Test compound formulation prepared every other day and stored at 4° C. […] After 3rd week of treatment blood samples were collected by cardiac puncture from fasted animals for blood chemistry analysis: ALAT, ASAT, GGT, Alkaline Phosphatase and total Bile Acids. Tests were performed in contract clinical laboratory (Liver Profile SA320, Antech Diagnostics, Orange Country, Calif.).
Blood was collected by tail vein bleed weekly and after 3 weeks of treatment by cardiopuncture for serum tests. Data for each group is presented as the Mean Value±SEM. Statistically evaluation by t-test: *P<0.05, **P<0.01,***P<0.001 vs. vehicle group.

total serum bile acids = assay: Plasma total serum bile acids in ZDF rats, week 3; type: in vivo; conditions: twice daily oral gavage

Row | SMILES | Time LUM001 remains active [1] | HMG-CoA Reductase, % change from vehicle group ([2]; 1 mg/kg/day) | HMG-CoA Reductase ([2]; 1 mg/kg/day) | HMG-CoA Reductase, % change from vehicle group ([2]; 4 mg/kg/day) | HMG-CoA Reductase ([2]; 4 mg/kg/day) | HMG-CoA Reductase, % change from vehicle group ([2]; 12 mg/kg/day) | HMG-CoA Reductase ([2]; 12 mg/kg/day) | HMG-CoA Reductase, % change from vehicle group ([2]; 30 mg/kg/day) | HMG-CoA Reductase ([2]; 30 mg/kg/day) | Cholesterol 7a-hydroxylase, % change from vehicle group ([3]; 1 mg/kg/day) | Cholesterol 7a-hydroxylase ([3]; 1 mg/kg/day) | Cholesterol 7a-hydroxylase, % change from vehicle group ([3]; 4 mg/kg/day) | Cholesterol 7a-hydroxylase ([3]; 4 mg/kg/day) | Cholesterol 7a-hydroxylase, % change from vehicle group ([3]; 12 mg/kg/day) | Cholesterol 7a-hydroxylase ([3]; 12 mg/kg/day) | Cholesterol 7a-hydroxylase, % change from vehicle group ([3]; 30 mg/kg/day) | Cholesterol 7a-hydroxylase ([3]; 30 mg/kg/day) | Plasma alanine aminotransferase (ALAT) [4] | Plasma alkaline phosphatase (ALP) [5] | Plasma total serum bile acids (SBA) (total serum bile acids)
1 | CCCCC1(CCCC)CS(=O)(=O)c2ccc(N(C)C)cc2[C@@H](c2ccc(OCc3ccc(C[N+]45CCN(CC4)CC5)cc3)cc2)[C@H]1O [LUM001] | more than 4.5 hours | (+128) % | 164 ± 20 pmol/mg/min | (+242) % | 246 ± 30 pmol/mg/min | (+449) % | 395 ± 46 pmol/mg/min | (+656) % | 544 ± 33 pmol/mg/min | (+28) % | 114 ± 18 pmol/mg/min | (+101) % | 179 ± 22 pmol/mg/min | (+219) % | 284 ± 41 pmol/mg/min | (+378) % | 425 ± 58 pmol/mg/min | – | – | –
2 | CCCC[C@]1(CC)CS(=O)(=O)c2ccc(N(C)C)cc2[C@@H](c2cccc(NC(=O)N[C@@H]3O[C@H](COS(=O)(=O)[O-])[C@@H](O)[C@H](OCc4ccccc4)[C@H]3O)c2)[C@H]1O.CCO.O.[K+] [LUM002, potassium((2R,3R,4S,5R,6R)-4-benzyloxy-6-{3-[3-((3S,4R,5R)-3-butyl-7-dimethylamino-3-ethyl-4-hydroxy-1,1-dioxo-2,3,4,5-tetrahydro-1H-benzo[b]thiepin-5-yl)-phenyl]-ureido}-3,5-dihydroxy-tetrahydro-pyran-2-ylmethyl)sulphate ethanolate, hydrate] | – | – | – | – | – | – | – | – | – | – | – | – | – | – | – | – | – | Neither LUM002 nor SC-435 caused statistically significant reductions | significant reductions in ALP | statistically significant reductions in SBA
